From patent publication US20050256132A1, “Use of ER selective NF-kB inhibitors for the treatment of sepsis” (priority 2003, published 2005) come the findings set out here.

One data set deals with ER/IL-6. Kind of data set: Endothelial Cell ER/IL-6 Assay, IL-6 promoter luciferase (Table 2). In kind it is cell-based, human. Particulars: Homo sapiens, HAECT1, ERα infected HAECT-1 cells, IL-1β; for Emax: read-out: IL6 luc % Efficacy; for IC50: read-out: IL6 luc IC50. A digest of the protocol: (§1)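 One lysate gave both read-outs: luciferase for ER/IL-6 and A340 rate after CK reagent for CK, with four-parameter logistic IC50/EC50. Cells were HAECT-1 aortic endothelial cells carrying adenoviral human ERα (or none), dosed […] at 34 °C from 2× stocks containing 2 ng/ml IL-1β and IL-6(1250 bp)-Luc adenovirus.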

The next data set relates to CK. Kind of data set: Creatine kinase assay in ERα infected HAECT-1 cells (Table 2). The class given is cell-based, human. Particulars: Homo sapiens; for EC50: HAECT1; for Emax: HAECT1, read-out: CK % Efficacy. An outline of the steps:
as §1

In a further data set the test system is NF-κB. Kind of data set: IL-1β stimulated NF-κB reporter activity in ERα expressing HAECT-1 cells. The class given is cell-based, human. Particulars: 1 μM ICI, 1 μM compound 67, FIG. 1B. The protocol: HAECT-1 cells (Chadwick C C, et al., Proc Natl Acad Sciences, 2005, 102(7): 2543-2548) were cultured in EGM (GIBCO, Rockville, Md.) containing 10% FBS, 1% GlutaMAX and 0.1% Antimycotic-Antibiotic in Falcon T-175 culture flasks at 34° C. in 5% CO2 and infected for four hours with Ad5-wt-ER virus. After overnight recovery, the cells were infected for 2 hours with the Ad5-3x(NFκB).Luc or Ad5-IL6.Luc virus. Compound 67 and 2 ng/ml IL-1 were added to the cells for 15-20 h and the cell lysate was assayed for luciferase activity and evaluated for CK expression (Stanbio Laboratories, Texas). The values are reported as mean±SEM with n=4 from at least 3 independent experiments.

The IC50 is the concentration needed to halve the response being measured. The EC50 is the concentration that produces a half-maximal response. As a reminder, the melting point is the temperature of the solid-liquid transition. In turn, `COC[C@@](C#N)(C(=O)OC)[C@@H](c1ccccc1OC)c1cccc2ccccc12` [Example 151, Methyl (2R,3R)-2-cyano-2-(methoxymethyl)-3-(2-methoxyphenyl)-3-(1-naphthyl)propanoate] yielded a melting point of 175.6 to 177.6 °C. Further, in the data set with ER/IL-6, the Emax amounted to 141% and the IC50 is 5.5 nM. In the data set on CK, the response was half-maximal at 13.5 nM (EC50) and the Emax stood at 30%.
For `COC(=O)[C@](C#N)(Cc1cccnc1)[C@@H](c1ccccc1OC)c1cccc2ccccc12` [Example 155, Methyl (2R,3R)-2-cyano-3-(2-methoxyphenyl)-3-(1-naphthyl)-2-(pyridin-3-ylmethyl)propanoate], the melting point is 193 °C (dec.). Also, in the data set on ER/IL-6, the Emax was found to be 105% and the IC50 amounted to 2 nM. In the data set on CK, the EC50 was found to be 6 nM and the Emax amounted to 33%.
The compound `COC(=O)C(C)(C#N)C(c1ccccc1OC)c1ccnc2ccccc12` (centres unmarked) [Example 160, Methyl 2-cyano-3-(2-methoxyphenyl)-2-methyl-3-(quinolin-4-yl)propanoate] yielded a melting point of 192 to 193.9 °C. In the data set with ER/IL-6, the Emax is 82% and the half-maximal inhibitory concentration (IC50) turned out to be 1260 nM. Besides, the Emax with CK is -10%.
For `COc1ccccc1C(c1ccnc2ccccc12)C(C#N)(Cc1cccnc1)C(=O)OC(C)(C)C` (centres unmarked) [Example 166, tert-Butyl 2-cyano-3-(2-methoxyphenyl)-2-(pyridin-3-ylmethyl)-3-quinolin-4-ylpropanoate], in that order: 225 to 228 °C, 77%, 353 nM and -13%.
In the case of `COc1ccccc1[C@H](c1cccc2ccccc12)[C@@](C)(C#N)C(=O)N1CCC(n2c(=O)[nH]c3ccccc32)CC1` [Example 183, (2S,3S)-3-(2-methoxyphenyl)-2-methyl-3-(1-naphthyl)-2-{[4-(2-oxo-2,3-dihydro-1H-benzimidazol-1-yl)piperidin-1-yl]carbonyl}propanenitrile], the melting point fell in the range of 197 to 200 °C. Further, in the data set on ER/IL-6, the Emax came to 196% and the IC50 is 361 nM. In the data set with CK, the 50% effective concentration (EC50) was 481 nM and the Emax was 63%.
Consider `COc1ccccc1[C@H](c1cccc2ccccc12)[C@@](C)(C#N)C(=O)N1CCC(O)(c2ccc(Cl)cc2)CC1` [Example 186, (2S)-3-[4-(4-chlorophenyl)-4-hydroxypiperidin-1-yl]-2-[(S)-(2-methoxyphenyl)(1-naphthyl)methyl]-2-methyl-3-oxopropanenitrile], for which the melting point was 202 to 204 °C. Also, in the data set with ER/IL-6, the Emax came to 60% and the concentration for half-maximal inhibition (IC50) came to 2460 nM. In addition, the Emax in the data set on CK turned out to be 11%.
In turn, `COc1ccccc1[C@H](c1cccc2ccccc12)[C@@](C)(C#N)C(=O)N1CCC(c2c[nH]c3ccccc23)CC1` [Example 187, (2S)-3-[4-(1H-indol-3-yl)piperidin-1-yl]-2-[(S)-(2-methoxyphenyl)(1-naphthyl)methyl]-2-methyl-3-oxopropanenitrile] had a melting point of 267 to 268 °C. Moreover, in the data set on ER/IL-6, the Emax worked out at 134% and the half-maximal inhibitory concentration (IC50) was 21 nM. Further, in the data set on CK, the EC50 worked out at 50 nM and the Emax was 48%.
Consider `COc1ccccc1[C@H](c1cccc2ccccc12)[C@@](C)(C#N)C(=O)N1CCN(c2ncccn2)CC1` [Example 192, (2S,3S)-3-(2-methoxyphenyl)-2-methyl-3-(1-naphthyl)-2-[(4-pyrimidin-2-ylpiperazin-1-yl)carbonyl]propanenitrile], for which the melting point lay in the range of 153 to 154 °C. Besides, in the data set with ER/IL-6, the Emax was 176% and the concentration for half-maximal inhibition (IC50) amounted to 44 nM. This compound also gave an EC50 with CK of 415 nM.
Turning to `COc1ccccc1[C@H](c1cccc2ccccc12)[C@@](C)(C#N)C(=O)N1CCC(N2CCOCC2)CC1` [Example 203, (2S,3S)-3-(2-methoxyphenyl)-2-methyl-2-[(4-morpholin-4-ylpiperidin-1-yl)carbonyl]-3-(1-naphthyl)propanenitrile], the melting point was 209 to 210 °C. Moreover, in the data set on ER/IL-6, the Emax stood at 28% and the half-maximal inhibitory concentration (IC50) is 9.93 nM. For the same compound, the Emax with CK was -26%.
For `COCC(C#N)(C(=O)N1CCN(CCCN(C)C)CC1)C(c1ccccc1OC)c1cccc2ccccc12` (centres unmarked) [Example 204, 3-{4-[3-(dimethylamino)propyl]piperazin-1-yl}-2-(methoxymethyl)-2-[(2-methoxyphenyl)(1-naphthyl)methyl]-3-oxopropanenitrile], in that order: 174 to 175 °C, 23%, 117 nM and -34%.
As to `COCCN1CCN(C(=O)C(C#N)(COCc2ccccc2)C(c2ccccc2OC)c2cccc3ccccc23)CC1` (centres unmarked) [Example 207, 2-[(benzyloxy)methyl]-3-[4-(2-methoxyethyl)piperazin-1-yl]-2-[(2-methoxyphenyl)(1-naphthyl)methyl]-3-oxopropanenitrile], the melting point lay in the range of 140 to 141 °C. In the data set on ER/IL-6, the Emax was 63% and the concentration for half-maximal inhibition (IC50) turned out to be 4000 nM. Also, the Emax in the data set on CK is -16%.
For `COc1ccccc1[C@H](c1cccc2ccccc12)[C@@](C)(C#N)C(=O)N1CCN(c2cnccn2)CC1` [Example 214, (2S,3S)-3-(2-methoxyphenyl)-2-methyl-3-(1-naphthyl)-2-[(4-pyrazin-2-ylpiperazin-1-yl)carbonyl]propanenitrile], in that order: 143 to 144 °C, 136%, 276 nM and 12%.
Regarding `COc1ccccc1[C@H](c1cccc2ccccc12)[C@@](C)(C#N)C(=O)N1CCN(CCN(C)C)CC1` [Example 216, (2S)-3-{4-[2-(dimethylamino)ethyl]piperazin-1-yl}-2-[(S)-(2-methoxyphenyl)(1-naphthyl)methyl]-2-methyl-3-oxopropanenitrile], the melting point lay within 84 to 85 °C. In addition, the Emax in the data set on ER/IL-6 was found to be 51%. For the same compound, the Emax with CK was -21%.
On to `COC[C@](C#N)(C(=O)N1CCN(c2cnccn2)CC1)[C@H](c1ccccc1OC)c1cccc2ccccc12` [Example 223, (2S,3S)-2-(methoxymethyl)-3-(2-methoxyphenyl)-3-(1-naphthyl)-2-[(4-pyrazin-2-ylpiperazin-1-yl)carbonyl]propanenitrile], for which the melting point was found to be 149 °C. In addition, in the data set with ER/IL-6, the Emax was 154% and the 50% inhibitory concentration (IC50) was determined as 38 nM. Further, in the data set on CK, the EC50 is 318 nM and the Emax turned out to be 24%.
As for `COC[C@@](C#N)(C(=O)N1CCN(c2cnccn2)CC1)[C@@H](c1ccccc1OC)c1cccc2ccccc12` [Example 224, (2R,3R)-2-(methoxymethyl)-3-(2-methoxyphenyl)-3-(1-naphthyl)-2-[(4-pyrazin-2-ylpiperazin-1-yl)carbonyl]propanenitrile], the melting point is 150 °C. Also, in the data set with ER/IL-6, the Emax amounted to 77% and the IC50 turned out to be 832 nM. In addition, the Emax with CK was -14%.
`C[C@]12CC[C@@H]3c4ccc(O)cc4C[C@@H](CCCCCCCCC[S+]([O-])CCCC(F)(F)C(F)(F)F)[C@H]3[C@@H]1CC[C@@H]2O` (some centres unmarked) [ICI 182,780, reference compound]: the “antagonism of the activity of compound 67 on NF-κB reporter” value in the data set with NF-κB was “effectively antagonized”.
